The test has as its system SARS-CoV-2 isolate hCoV-19/Germany/FI1103201/2020. Briefly: microbe, parasite or virus in culture. The format is cell-based.

Where two headings read alike, the source gives them in different places.

As a reminder, the IC50 is the concentration at which inhibition is half-maximal. For the compound `CC(C)(C)NC(=O)N1CCN(C(=O)N2C(=O)C(CCCNC(=N)N)C2C(=O)O)CC1` (centres unmarked) [BMS-262084], the IC50 (Severe acute respiratory syndrome coronavirus 2, Calu-3, 24 h, read-out: IC50, relative infectivity of SARS-CoV-2) worked out at 510 nM and the IC50 (Severe acute respiratory syndrome coronavirus 2, Calu-3 cells, Figure S5, read-out: IC50 estimate, SARS-CoV-2 entry inhibition) is 509 ± 146 nM.

These data come from PMC12307812 (Nature Communications, 2025).
